pIC50: −log10 of the molar value.

This assay deals with human ADRA2C receptor (Homo sapiens (Human), UniProt P18825). The experiment in a line: In vitro activity assay to determine the inhibition of recombinant ADRA2C (CHO-K1 cells, aequorin bioluminescence). Conditions: inhibition of noradrenaline-induced bioluminescence signal; some mean values from multiple determinations; read-out: ARα2C IC50. It is filed as cell-based. As for the experimental part: B-2. In Vitro Activity Assay to Determine the Inhibition of Recombinant ADRA2C
Chain of human ADRA2C receptor (P18825 whole entry): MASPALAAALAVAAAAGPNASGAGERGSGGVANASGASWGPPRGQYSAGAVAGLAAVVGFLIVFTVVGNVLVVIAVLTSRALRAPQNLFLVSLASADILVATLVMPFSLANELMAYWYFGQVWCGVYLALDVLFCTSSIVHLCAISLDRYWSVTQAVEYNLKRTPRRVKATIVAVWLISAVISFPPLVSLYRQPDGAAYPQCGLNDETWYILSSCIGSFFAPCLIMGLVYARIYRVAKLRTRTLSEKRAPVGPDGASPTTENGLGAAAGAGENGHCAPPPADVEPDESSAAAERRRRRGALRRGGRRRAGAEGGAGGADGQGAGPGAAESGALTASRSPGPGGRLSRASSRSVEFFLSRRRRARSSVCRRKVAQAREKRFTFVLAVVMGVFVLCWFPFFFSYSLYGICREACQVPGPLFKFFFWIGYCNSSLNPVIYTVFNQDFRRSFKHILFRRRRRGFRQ
The human ADRA2C receptor belongs to the G protein(guanine-dependent protein)-coupled receptors, the main function of which is the transduction of signals into the interior of the cell.
The investigations of the inhibition of the recombinant human ADRA2C receptors were carried out with stabily transfected CHO-K1 cells coexpressing the Gaq protein and the calcium-sensitive photoprotein aequorin. In this recombinant system, binding of the agonists noradrenaline to the ADRA2C receptor leads, after activation of a signal cascade, to calcium release from intracellular stores, which is detected by the intracellular calcium sensor aequorin as a bioluminescent signal. The method is described in detail in the reference below. [Wunder F., Kalthof B., Muller T., Hueser J. Functional Cell-Based Assays in Microliter Volumes for Ultra-High Throughput Screening. Combinatorial Chemistry & High Throughput Screening, Volume 11, Number 7, 2008, pp. 495-504(10). doi.org/10.2174/138620708785204054]
The activity of the test substances was determined via their ability to inhibit the agonist-induced increase of the bioluminescence signal. The concentration which can block half of this signal increase is referred to as IC50. The IC50 value is calculated using the 4 parameter logistic function (Hill function):
Top=upper threshold, Bottom=lower threshold, Slope=slope, IC50=turning point
For `C[C@@H]1CCCN(C2CCN(c3ncc(C(=O)NCc4ncc(F)cc4F)s3)CC2F)C1` (mixture of isomers) [Example 50, diamix-N-[(3,5-Difluoropyridin-2-yl)methyl]-2-[(3R)-3′-fluoro-3-methyl[1,4′-bipiperidin]-1′-yl]-1,3-thiazole-5-carboxamide], the pIC50 was 7.13. Take `CC(NC(=O)c1cnc(N2CCC(N3CCC[C@@H](C)C3)CC2)s1)c1ncc(F)cc1F` (mixture of isomers) [Example 55, diamix-N-[1-(3,5-Difluoropyridin-2-yl)ethyl]-2-[(3R)-3-methyl[1,4′-bipiperidin]-1′-yl]-1,3-thiazole-5-carboxamide]: the pIC50 was 6.82. `C[C@@H]1CCCN(C2CCN(c3nc(C(=O)NCc4ncc(F)cc4F)cs3)CC2F)C1` (mixture of isomers) [Example 111, diamix-N-[(3,5-Difluoropyridin-2-yl)methyl]-2-[(3R)-3′-fluoro-3-methyl[1,4′-bipiperidin]-1′-yl]-1,3-thiazole-4-carboxamide]: the pIC50 is 9.31. On to `C[C@@H]1CCCN(C2CCN(c3nc(C(=O)NCc4ncc(F)cc4F)co3)CC2F)C1` (mixture of isomers) [Example 112, diamix-N-[(3,5-Difluoropyridin-2-yl)methyl]-2-[(3R)-3′-fluoro-3-methyl[1,4′-bipiperidin]-1′-yl]-1,3-oxazole-4-carboxamide], for which the pIC50 is 8.92.

As for `C[C@@H]1CCCN(C2CCN(c3ncc(C(=O)NCc4cc(Cl)ccc4F)s3)CC2F)C1` (mixture of isomers) [Example 113, diamix-N-(5-Chloro-2-fluorobenzyl)-2-[(3R)-3′-fluoro-3-methyl[1,4′-bipiperidin]-1′-yl]-1,3-thiazole-5-carboxamide], the pIC50 is 9.21. As for `CC(NC(=O)c1cnc(N2CCC(N3CCC[C@@H](C)C3)C(F)C2)s1)c1cc(F)ccc1F` (mixture of isomers) [Example 117, diamix-N-[1-(2,5-Difluorophenyl)ethyl]-2-[(3R)-3′-fluoro-3-methyl[1,4′-bipiperidin]-1′-yl]-1,3-thiazole-5-carboxamide], the figure is 9.19; as for `O=C(NCc1ncc(F)cc1F)c1cnc(N2CCC(N3CCCC(CC4CC4)C3)CC2)s1` (racemic) [Example 3, 2-[3-(Cyclopropylmethyl)[1,4′-bipiperidin]-1′-yl]-N-[(3,5-difluoropyridin-2-yl)methyl]-1,3-thiazole-5-carboxamide (racemate)], 8.54; as for `O=C(NCc1ncc(F)cc1F)c1cnc(N2CCC(N3CCCC(C(F)F)C3)CC2)s1` (racemic) [Example 4, 2-[3-(difluoromethyl)[1,4′-bipiperidin]-1′-yl]-N-[(3,5-difluoropyridin-2-yl)methyl]-1,3-thiazole-5-carboxamide (racemate)], 6.77. For `O=C(NCc1ncc(F)cc1F)c1cnc(N2CCC(N3CCCC(C(F)(F)F)C3)CC2)s1` (racemic) [Example 5, N-[(3,5-difluoropyridin-2-yl)methyl]-2-[3-(trifluoromethyl)[1,4′-bipiperidin]-1′-yl]-1,3-thiazole-5-carboxamide (racemate)], the pIC50 is 6.47. For the compound `O=C(NCc1ncc(F)cc1F)c1cnc(N2CCC(N3CCCC(CF)C3)CC2)s1` (racemic) [Example 6, N-[(3,5-difluoropyridin-2-yl)methyl]-2-[3-(fluoromethyl)[1,4′-bipiperidin]-1′-yl]-1,3-thiazole-5-carboxamide (racemate)], the pIC50 is 6.47.

`O=C(NCc1ncc(F)cc1F)c1cnc(N2CCC(N3CCCC(OCC4CC(F)(F)C4)C3)CC2)s1` (racemic) [Example 7, 2-{3-[(3,3-difluorocyclobutyl)methoxy][1,4′-bipiperidin]-1′-yl}-N-[(3,5-difluoropyridin-2-yl)methyl]-1,3-thiazole-5-carboxamide (racemate)]: the pIC50 was 7.30. With `O=C(NCc1ncc(F)cc1F)c1cnc(N2CCC(N3CCCC(OC(F)F)C3)CC2)s1` (racemic) [Example 16, 2-[3-(Difluoromethoxy)[1,4′-bipiperidin]-1′-yl]-N-[(3,5-difluoropyridin-2-yl)methyl]-1,3-thiazole-5-carboxamide (racemate)], the pIC50 was 5.70. As for `CCC1CCCN(C2CCN(c3ncc(C(=O)NCc4ncc(F)cc4F)s3)CC2)C1` (racemic) [Example 17, N-[(3,5-Difluoropyridin-2-yl)methyl]-2-(3-ethyl[1,4′-bipiperidin]-1′-yl)-1,3-thiazole-5-carboxamide (racemate)], the figure is 7.58; as for `COCC1CCCN(C2CCN(c3ncc(C(=O)NCc4ncc(F)cc4F)s3)CC2)C1` (racemic) [Example 48, rac-N-[(3,5-Difluoropyridin-2-yl)methyl]-2-[3-(methoxymethyl)[1,4′-bipiperidin]-1′-yl]-1,3-thiazole-5-carboxamide], 7.77; as for `CC1CCCN(C2CCN(c3ncc(C(=O)NCc4ncc(F)cc4F)s3)CC2)CC1` (racemic) [Example 53, rac-N-[(3,5-Difluoropyridin-2-yl)methyl]-2-[4-(4-methylazepan-1-yl)piperidin-1-yl]-1,3-thiazole-5-carboxamide], 6.96. To `CC1CCCCN(C2CCN(c3ncc(C(=O)NCc4ncc(F)cc4F)s3)CC2)C1` (racemic) [Example 54, rac-N-[(3,5-Difluoropyridin-2-yl)methyl]-2-[4-(3-methylazepan-1-yl)piperidin-1-yl]-1,3-thiazole-5-carboxamide] belongs 6.64. To `O=C(NCc1ncc(F)cc1F)c1cnc(N2CCC(N3CCCC(COCC(F)(F)F)C3)CC2)s1` (racemic) [Example 59, rac-N-[(3,5-Difluoropyridin-2-yl)methyl]-2-{3-[(2,2,2-trifluoroethoxy)methyl][1,4′-bipiperidin]-1′-yl}-1,3-thiazole-5-carboxamide] belongs 7.96; to `O=C(NCc1ncc(F)cc1F)c1cnc(N2CCC(N3CCCC(COCC4(CF)CC4)C3)CC2)s1` (racemic) [Example 60, rac-N-[(3,5-Difluoropyridin-2-yl)methyl]-2-[3-({[1-(fluoromethyl)cyclopropyl]methoxy}methyl)[1,4′-bipiperidin]-1′-yl]-1,3-thiazole-5-carboxamide], 7.13. In the case of `O=C(NCc1ncc(F)cc1F)c1cnc(N2CCC(N3CCCC(COCC4(C(F)F)CC4)C3)CC2)s1` (racemic) [Example 61, rac-2-[3-({[1-(Difluoromethyl)cyclopropyl]methoxy}methyl)[1,4′-bipiperidin]-1′-yl]-N-[(3,5-difluoropyridin-2-yl)methyl]-1,3-thiazole-5-carboxamide], the pIC50 is 7.06. As for `O=C(NCc1ncc(F)cc1F)c1cnc(N2CCC(N3CCCC(COCC4(C(F)(F)F)CC4)C3)CC2)s1` (racemic) [Example 62, rac-N-[(3,5-Difluoropyridin-2-yl)methyl]-2-[3-({[1-(trifluoromethyl)cyclopropyl]methoxy}methyl)[1,4′-bipiperidin]-1′-yl]-1,3-thiazole-5-carboxamide], the figure is 6.89; as for `O=C(NCc1ncc(F)cc1F)c1cnc(N2CCC(N3CCCC4(C3)CC4(F)F)CC2)s1` (racemic) [Example 65, rac-2-[4-(1,1-Difluoro-5-azaspiro[2.5]octan-5-yl)piperidin-1-yl]-N-[(3,5-difluoropyridin-2-yl)methyl]-1,3-thiazole-5-carboxamide], 8.35.

Source of the values: patent publication US20240000767A1, “COMBINATION OF AN ALPHA2-ADRENOCEPTOR SUBTYPE C (ALPHA-2C) ANTAGONIST WITH A TASK1/3 CHANNEL BLOCKER FOR THE TREATMENT OF SLEEP APNEA” (Bayer Aktiengesellschaft, priority 2020, published 2024).
